{"source": "patent US20100016232A1", "about": "“Treatment Of Inflammatory Diseases With Mammal Beta Defensins” (Novozymes A/S, priority 2008, published 2010)", "key": {"[1]": {"test_system": "IL-23, human PBMC", "assay": "IL-23 in supernatants of human PBMC, ELISA", "type": "cell-based", "procedure": "Peripheral blood was drawn from healthy volunteers (with approval from the relevant ethical committee in Denmark). Heparinized blood was diluted 1/1 v/v with RPMI and were subjected to Ficoll density centrifugation within 2 h of drawing. Plasma was collected from the top from individual donors and was kept on ice until it was used at 2% in the culture medium (autologous culture medium). Isolated PBMC were resuspended in autologous culture medium and seeded in 96-well culture plates with 255.000 cells per well in a total of 200 μl. […] The concentrations used for stimulation were optimized on 3 different donors in initial experiments, for LPS two different concentrations were used to be sure to be on a cytokine level that is possible to modulate. In some experiments PBMC were treated with Dexamethason and Indomethacin alone and together with LPS or LTA as a control on downregulation of inflammatory cytokines. The supernatants were collected after incubation at 37° C. for 24 hours, and stored at −80° C. until cytokine measurement. Viability was measured by Alamar Blue (Biosource, DALL 1100) in all experiments and in some cases also by MTS (Promega) according to manufacturer's instruction and was in some experiments also judged by counting of the cells by a Nucleocounter. […]\nCell culture supernatants were collected and stored at −80° C. Amounts of IL-23 was measured by standard sandwich ELISA using commercially available antibodies and standards according to the manufacturer's protocols (eBioscience)."}, "[2]": {"test_system": "TNF production in supernatant from a human monocyte cell line (MUTZ-3)", "assay": "TNF production, human monocyte cell line MUTZ-3", "type": "cell-based", "procedure": "The human myeloid leukaemia-derived cell line MUTZ-3 (DSMZ, Braunschweig, Germany) was maintained in a-MEM (Sigma M4526), supplemented with 20% [volume/volume (v/v)] fetal bovine serum (Sigma F6178) and 40 ng/ml rhGM-CSF (R&D Systems 215-GM-050).\nCytokine production in supernatants was measured by flow cytometry with a human inflammation cytometric bead array (CBA) according to manufacturer's instructions (BD) on a FACSarray flow cytometer. The following cytokines were measured: IL-8, IL-1β, IL-10, TNF, IL-12 p70, IL-6. In some experiments, cytokines were measured by ELISA kits from R&D systems (IL-10, TNF-α, IL-1β) according to the manufacturer' instruction."}, "[3]": {"test_system": "DSS-induced colitis in the mouse", "assay": "10-day DSS-induced colitis, colon histological score (Example 6)", "type": "in vivo", "procedure": "Two sections (proximal and distal) of colon were taken from each animal and preserved in neutral buffered formalin for subsequent histological analysis (haematoxylin and eosin staining) according to the following scoring system:\nExample 6 was carried out essentially as described in Example 5. The differences are indicated below.\nAnimals were divided into 9 experimental groups.\nTwo sections (proximal and distal) of colon were taken from each animal, processed for histological analysis (haematoxylin and eosin staining), and scored by a blind observer according to the scoring system described above."}, "[4]": {"test_system": "PBMC", "assay": "PBMC viability, Alamar Blue", "type": "cell-based, human", "procedure": "Peripheral blood was drawn from healthy volunteers (with approval from the relevant ethical committee in Denmark). Heparinized blood was diluted 1/1 v/v with RPMI and were subjected to Ficoll density centrifugation within 2 h of drawing. Plasma was collected from the top from individual donors and was kept on ice until it was used at 2% in the culture medium (autologous culture medium). Isolated PBMC were resuspended in autologous culture medium and seeded in 96-well culture plates with 255.000 cells per well in a total of 200 μl. […] The concentrations used for stimulation were optimized on 3 different donors in initial experiments, for LPS two different concentrations were used to be sure to be on a cytokine level that is possible to modulate. In some experiments PBMC were treated with Dexamethason and Indomethacin alone and together with LPS or LTA as a control on downregulation of inflammatory cytokines. The supernatants were collected after incubation at 37° C. for 24 hours, and stored at −80° C. until cytokine measurement. Viability was measured by Alamar Blue (Biosource, DALL 1100) in all experiments and in some cases also by MTS (Promega) according to manufacturer's instruction and was in some experiments also judged by counting of the cells by a Nucleocounter."}, "[5]": {"test_system": "IL-1β and IL-8 and IL-6, dendritic cells", "assay": "Cytokines from dendritic cells stimulated with a cytokine cocktail", "type": "cell-based, human", "conditions": "cytokine cocktail together with hBD2 vs cocktail alone, results not shown", "excerpt": "Obviously no effect on TNF could be analyzed, due to stimulation with TNF-α (results not shown)."}, "[6]": {"conditions": "Group F, 0.1 mg/kg twice daily i.v. + s.c."}, "[7]": {"conditions": "Group G, 0.1 mg/kg i.v. every 2. day"}}, "note": "Marks after values point to notes of the source that are not given here. Where no end group is shown, it is not given here.", "data": [{"substance": "hBD2: human beta defensin 2, SEQ ID NO:2; produced recombinantly in E. coli (Example 1); hBD2 of Tables 16-18 was prepared by chemical synthesis (GIGDPVTCLKSGAICHPVFCPRRYKQIGTCGLPGTKCCKKP; ends and bridges not checked; cysteine pairing not given here; listed as Homo sapiens)", "values": [{"measurement": "IL-23", "setting": "[1]; Control (medium), treatment 1 μg/ml", "value": 218, "unit": "pg/mL"}, {"measurement": "IL-23", "setting": "[1]; Control (medium), treatment 10 μg/ml", "value": 211, "unit": "pg/mL"}, {"measurement": "IL-23", "setting": "[1]; Control (medium), treatment 100 μg/ml", "value": 207, "unit": "pg/mL"}, {"measurement": "IL-23", "setting": "[1]; LPS 0.6 ng/ml, treatment 1 μg/ml", "value": 338, "unit": "pg/mL"}, {"measurement": "IL-23", "setting": "[1]; LPS 0.6 ng/ml, treatment 10 μg/ml", "value": 462, "unit": "pg/mL"}, {"measurement": "IL-23", "setting": "[1]; LPS 0.6 ng/ml, treatment 100 μg/ml", "value": 484, "unit": "pg/mL"}, {"measurement": "IL-23", "setting": "[1]; LPS 20 ng/ml, treatment 1 μg/ml", "value": 263, "unit": "pg/mL"}, {"measurement": "IL-23", "setting": "[1]; LPS 20 ng/ml, treatment 10 μg/ml", "value": 295, "unit": "pg/mL"}, {"measurement": "IL-23", "setting": "[1]; LPS 20 ng/ml, treatment 100 μg/ml", "value": 488, "unit": "pg/mL"}, {"measurement": "IL-23", "setting": "[1]; LTA 5 μg/ml, treatment 1 μg/ml", "value": 383, "unit": "pg/mL"}, {"measurement": "IL-23", "setting": "[1]; LTA 5 μg/ml, treatment 10 μg/ml", "value": 438, "unit": "pg/mL"}, {"measurement": "IL-23", "setting": "[1]; LTA 5 μg/ml, treatment 100 μg/ml", "value": 810, "unit": "pg/mL"}, {"measurement": "TNF", "setting": "[2]; LPS 1.5 μg/ml, hBD2 1 μg/ml", "value": 6.61, "unit": "pg/mL"}, {"measurement": "TNF", "setting": "[2]; LPS 1.5 μg/ml, hBD2 10 μg/ml", "value": 3.93, "unit": "pg/mL"}, {"measurement": "TNF", "setting": "[2]; LPS 1.5 μg/ml, hBD2 100 μg/ml", "value": 3.93, "unit": "pg/mL"}, {"measurement": "TNF", "setting": "[2]; LTA 1.5 μg/ml, hBD2 1 μg/ml", "value": 1.75, "unit": "pg/mL"}, {"measurement": "TNF", "setting": "[2]; LTA 1.5 μg/ml, hBD2 10 μg/ml", "value": 3.76, "unit": "pg/mL"}, {"measurement": "TNF", "setting": "[2]; LTA 1.5 μg/ml, hBD2 100 μg/ml", "value": 2.64, "unit": "pg/mL"}, {"measurement": "TNF", "setting": "[2]; Medium, hBD2 1 μg/ml", "value": 2.21, "unit": "pg/mL"}, {"measurement": "TNF", "setting": "[2]; Medium, hBD2 10 μg/ml", "value": 2.60, "unit": "pg/mL"}, {"measurement": "TNF", "setting": "[2]; Medium, hBD2 100 μg/ml", "value": 0.00, "unit": "pg/mL"}, {"measurement": "Histology Score Distal Colon, mean", "setting": "[3]; Group B, 1 mg/kg i.v.", "value": 3.56}, {"measurement": "Histology Score Proximal Colon, mean", "setting": "[3]; Group B, 1 mg/kg i.v.", "value": 1.78}, {"measurement": "Histology Score Distal Colon, mean", "setting": "[3]; Group C, 0.1 mg/kg i.v.", "value": "3.14*"}, {"measurement": "Histology Score Proximal Colon, mean", "setting": "[3]; Group C, 0.1 mg/kg i.v.", "value": 1.71}, {"measurement": "Histology Score Distal Colon, mean", "setting": "[3]; Group D, 0.01 mg/kg i.v.", "value": "3.10**"}, {"measurement": "Histology Score Proximal Colon, mean", "setting": "[3]; Group D, 0.01 mg/kg i.v.", "value": 1.70}, {"measurement": "Histology Score Distal Colon, mean", "setting": "[3]; Group E, 0.001 mg/kg i.v.", "value": 3.56}, {"measurement": "Histology Score Proximal Colon, mean", "setting": "[3]; Group E, 0.001 mg/kg i.v.", "value": 1.44}, {"measurement": "Histology Score Distal Colon, mean", "setting": "[3]; [6]", "value": "2.90***"}, {"measurement": "Histology Score Proximal Colon, mean", "setting": "[3]; [6]", "value": "1.30*"}, {"measurement": "Histology Score Distal Colon, mean", "setting": "[3]; [7]", "value": 3.56}, {"measurement": "Histology Score Proximal Colon, mean", "setting": "[3]; [7]", "value": 1.56}, {"measurement": "Viability, Alamar Blue", "setting": "[4]; LPS 0.6 ng/ml, hBD2 1 μg/ml", "value": 4230588, "unit": "RFU"}, {"measurement": "Viability, Alamar Blue", "setting": "[4]; LPS 0.6 ng/ml, hBD2 10 μg/ml", "value": 4664362, "unit": "RFU"}, {"measurement": "Viability, Alamar Blue", "setting": "[4]; LPS 0.6 ng/ml, hBD2 100 μg/ml", "value": 4831188, "unit": "RFU"}, {"measurement": "Viability, Alamar Blue", "setting": "[4]; LPS 20 ng/ml, hBD2 1 μg/ml", "value": 4561739, "unit": "RFU"}, {"measurement": "Viability, Alamar Blue", "setting": "[4]; LPS 20 ng/ml, hBD2 10 μg/ml", "value": 4623818, "unit": "RFU"}, {"measurement": "Viability, Alamar Blue", "setting": "[4]; LPS 20 ng/ml, hBD2 100 μg/ml", "value": 4765256, "unit": "RFU"}, {"measurement": "Viability, Alamar Blue", "setting": "[4]; LTA 1.25 μg/ml, hBD2 1 μg/ml", "value": 4148294, "unit": "RFU"}, {"measurement": "Viability, Alamar Blue", "setting": "[4]; LTA 1.25 μg/ml, hBD2 10 μg/ml", "value": 4677870, "unit": "RFU"}, {"measurement": "Viability, Alamar Blue", "setting": "[4]; LTA 1.25 μg/ml, hBD2 100 μg/ml", "value": 4664185, "unit": "RFU"}, {"measurement": "Viability, Alamar Blue", "setting": "[4]; Medium, hBD2 1 μg/ml", "value": 4064143, "unit": "RFU"}, {"measurement": "Viability, Alamar Blue", "setting": "[4]; Medium, hBD2 10 μg/ml", "value": 3683369, "unit": "RFU"}, {"measurement": "Viability, Alamar Blue", "setting": "[4]; Medium, hBD2 100 μg/ml", "value": 3950053, "unit": "RFU"}, {"measurement": "cytotoxic effect on the cells", "setting": "[4]; human PBMC, MTS and Alamar Blue, Tables 4 and 5", "value": "no cytotoxic effect"}, {"measurement": "IL-1β and IL-8 and IL-6", "setting": "[5]", "value": "downregulating effect"}]}]}
